The numbers were not newly measured in US20080255097A1, “Methods for the Treatment of Substance Abuse and Dependence” (priority 2005, published 2008), which cites them from elsewhere.

Assay in data set [1]: not given
This is another data set of the same source.

The conditions of data set [2]: overdose.
For data set [3], the system named is GABAA receptor α4 subunit mRNA. The note with it: withdrawal after long-term exposure.
A further data set concerns GABAA receptors. The conditions noted are these: 10 μM diazepam substituted for ethanol.
The test system of data set [4] is GABAA receptor α4 subunit mRNA. The note with it: exposure at the time of ethanol withdrawal.
The subject of data set [5] is allopregnanolone. The note with it: in vivo.
Data set [6] has as its system allopregnanolone. The conditions noted are these: in vivo. This is another data set of the same source.

As for `N[C@@H]1C[C@H]1c1ccccc1` (racemic) [TRANYLCYPROMINE], the “time in which the drug is excreted” value (after withdrawal) is 24 h.

As to `C[C@]12C=CC(=O)N[C@@H]1CC[C@@H]1[C@@H]2CC[C@]2(C)[C@@H](C(=O)Nc3cc(C(F)(F)F)ccc3C(F)(F)F)CC[C@@H]12` [Dutasteride, (5α,17β)-N-{2,5 bis(trifluoromethyl)phenyl}-3-oxo-4-azaandrost-1-ene-17-carboxamide], the “adverse effects compared with therapeutic dose of 0.5 mg” value in data set [1] (clinical study, daily doses of 5 mg, 60 subjects, 6 months) is “subjects for 6 months with no additional adverse effects to those”. In data set [1] (volunteer studies, single doses up to 40 mg (80 times the therapeutic dose) for 7 days), the safety entry is on record as “without significant safety concerns. In a clinical study, daily doses”.

Take `NCC1(CC(=O)O)CCCCC1` [Gabapentin]: under “in vivo”, the half-life was 5 to 7 h and the metabolism entry is given as “not appreciably metabolized”.

On to `CCCC(C)(COC(N)=O)COC(N)=O` [MEPROBROMATE], for which, in data set [2], the “highest ingested amount with survival” value was “much as 40 g”.

As to `C=CCN1CC[C@]23c4c5ccc(O)c4O[C@H]2C(=O)CC[C@@]3(O)[C@H]1C5` [Naloxone, 17-allyl-4,5α-epoxy-3,14-dihydroxymorphinan-6-one], the half-life (in vivo) is 1 to 1.67 h.

Consider `CN1C(=O)CN=C(c2ccccc2)c2cc(Cl)ccc21` [diazepam], for which the “amount of α4 subunit mRNA on withdrawal of the drug” value (from here on “amount of α4 subunit mRNA”) in data set [3] is recorded as “marked increase”. The “effect on positive modulation of 3 μM flumazenil induced by ethanol withdrawal” value in the data set on GABAA receptors is on record as “negated”. The “effect on ethanol withdrawal-induced increase in abundance of α4 subunit mRNA” value in data set [4] is “antagonizes”.

In the case of `CNCCC(Oc1ccc(C(F)(F)F)cc1)c1ccccc1` (stereo not drawn) [fluoxetine], the “brain and cerebrospinal fluid content of allopregnanolone” value with allopregnanolone [5] was “increase”.

For `CN1CCC[C@H]1c1cccnc1` [nicotine], the half-life entry (in vivo) is “about 60 minutes”. The “cerebrocortical concentrations of allopregnanolone and its precursors” value in the data set with allopregnanolone [6] is reported as “increase”.

As for `CCN(C(C)=O)c1cccc(-c2ccnc3c(C#N)cnn23)c1` [zalpelon], the “amount of α4 subunit mRNA” value in data set [3] is “marked increase”.

As for `Cc1ccc(-c2nc3ccc(C)cn3c2CC(=O)N(C)C)cc1` [zolpidem], in data set [3], the “amount of α4 subunit mRNA” value was “marked increase”.
